From patent US20240374735A1, “AROMATIC BORON-CONTAINING COMPOUNDS AND INSULIN ANALOGS” (PROTOMER TECHNOLOGIES INC., priority 2020, published 2024)

System: diabetic B6 mice (streptozocin)
Test: Glucose challenge in STZ diabetic mice
Type: in vivo
Conditions: injected subcutaneously or intraperitoneally, glucose challenge one hour post-injection
Procedure: Diabetes was induced in 12-week-old B6 mice using streptozocin (STZ) treatment. Three weeks after the final STZ treatment, blood glucose of the mice was sampled from lateral tail vein to confirm diabetes. Mice with blood glucose of >200 mg/dl were deemed to be diabetic and fasted for 1-6 hours prior to injection. Human insulin and a compound of Formula I in sterile phosphate buffered saline, pH 7.4 were injected either subcutaneously via neck scruff or intraperitoneally, depending on the experiment. Blood glucose was sampled with a glucometer via lateral tail vein at 15-minute intervals. After one hour of initial stabilization of blood glucose levels post-insulin injection, mice were challenged with an intraperitoneal injection of glucose (e.g., 2 g/kg, 4 g/kg, or 6 g/kg; the actual dose depends on the example and experiment) in sterile phosphate buffered saline.

## human insulin: Human insulin, comparator in the mouse experiments; biosynthetic human insulin (BHI) in the clamp
  Blood glucose response after intraperitoneal glucose bolus: did not activate in a glucose-dependent manner
